Reference: patent US20250388589A1, “TRICYCLIC HETEROCYCLIC DERIVATIVES, COMPOSITIONS AND USES THEREOF” (Danatlas Pharmaceuticals Co., Ltd., priority 2022, published 2025)

Experiments:
[1] = target: hPARG (C-terminal His6-tag) (Homo sapiens (Human), UniProt Q86W56); test: PARG Enzymatic Activity Assay (HTRF); type: biochemical; details: hPARG 65 pM final, biotinylated-NAD ribosylated PARP1 8 nM final
Protocol: PARG Enzymatic Activity Assay HTRF assay was used to measure the ability of compounds to inhibit the activity of PARG in vitro. C-terminal His6-tag PARG expressed in E. coli was purified and stored at −80° C. in aliquots. Assay measurements were performed with 1×buffer comprising 50 mM Tris pH 7.4, 0.1 mg/mL BSA, 3 mM EDTA, 0.4 mM EGTA, 1 mM DTT, 50 mM KCl and 0.01% Tween 20.
Compounds dissolved in DMSO were plated into a 384-well assay plate (PerkinElmer, Catalog #: 6008280) in duplicate using a dispenser (Labcyte, Echo 665), and tested on a 10-point 4-fold serial dilution. Add 5 L Enzyme mix [hPARG (C-terminal His6-tag, 4.2 μM), 65 pM final] to the test wells. The plates were covered and left to incubate for 60 minutes at RT before the addition of 5 L substrate mix [biotinylated-NAD ribosylated PARP1 (6.1 μM), 8 nM final] to initiate reaction. After incubating 10 minutes at RT, add 2.5 L Streptavidin-Eu cryptate (Cisbio, Catalog #: 610SAKLA) and 2.5 L Mab anti 6HIS-XL665 (Cisbio, Catalog #: 61HISXLA) to the plate, and incubate for 60 minutes at RT. Read on a multimode plate reader (PerkinElmer, Envision 2015) in time-resolved fluorescence (TRF) mode, with excitation at 337 nm and emission at both 620 nm and 665 nm. Average HTRF signal of high control (Wells with 1% DMSO) was calculated and as Vehicle Control (VC). Average HTRF signal of low control (no Enzyme) was calculated and as Positive control (PC).
(§1) IC50 values were determined by fitting the data to the standard 4 parameters with Hill Slope using GraphPad Prism software.

[2] = system: Kuramochi cell line; test: Cell Viability Assay (Cell Titer-Glo, 7 days); type: cell-based; details: 168 h, Kuramochi cells, 7 days incubation, read-out: PARG Cell viability (IC50)
Protocol: Cell viability studies were conducted in Kuramochi cell line. Cells were maintained in RPMI (Hyclone, Catalog #: SH3080901B) supplemented with 10% v/v FBS (AusGeneX, Catalog #: FBS500-S), 1% v/v Penicillin Streptomycin (Gibco, Catalog #: 15140122). Cells were seeded in 96-well plates (PerkinElmer, Catalog #: 6005680) at a density of 400 cells/well. Compounds dissolved in DMSO were plated in duplicate using a multichannel pipette, and tested on a 9-point 3-fold serial dilution. Cells were incubated for 7 days in a 37° C. active humidified incubator at 5% CO2. Cell viability was measured using the Cell Titer-Glo reagent (Promega, Catalog #: G7573) as manufacturer's instructions. Luminescence signal was measured with a multimode plate reader (Perkin Elmer, Envision 2105 or BMG, ClarioStar Plus). Average values of DMSO treated wells in a plate was calculated and as high control (HC). Average values of only medium in a plate was calculated and as low control (LC)
as §1

Sequence of hPARG (C-terminal His6-tag) (Q86W56 whole entry): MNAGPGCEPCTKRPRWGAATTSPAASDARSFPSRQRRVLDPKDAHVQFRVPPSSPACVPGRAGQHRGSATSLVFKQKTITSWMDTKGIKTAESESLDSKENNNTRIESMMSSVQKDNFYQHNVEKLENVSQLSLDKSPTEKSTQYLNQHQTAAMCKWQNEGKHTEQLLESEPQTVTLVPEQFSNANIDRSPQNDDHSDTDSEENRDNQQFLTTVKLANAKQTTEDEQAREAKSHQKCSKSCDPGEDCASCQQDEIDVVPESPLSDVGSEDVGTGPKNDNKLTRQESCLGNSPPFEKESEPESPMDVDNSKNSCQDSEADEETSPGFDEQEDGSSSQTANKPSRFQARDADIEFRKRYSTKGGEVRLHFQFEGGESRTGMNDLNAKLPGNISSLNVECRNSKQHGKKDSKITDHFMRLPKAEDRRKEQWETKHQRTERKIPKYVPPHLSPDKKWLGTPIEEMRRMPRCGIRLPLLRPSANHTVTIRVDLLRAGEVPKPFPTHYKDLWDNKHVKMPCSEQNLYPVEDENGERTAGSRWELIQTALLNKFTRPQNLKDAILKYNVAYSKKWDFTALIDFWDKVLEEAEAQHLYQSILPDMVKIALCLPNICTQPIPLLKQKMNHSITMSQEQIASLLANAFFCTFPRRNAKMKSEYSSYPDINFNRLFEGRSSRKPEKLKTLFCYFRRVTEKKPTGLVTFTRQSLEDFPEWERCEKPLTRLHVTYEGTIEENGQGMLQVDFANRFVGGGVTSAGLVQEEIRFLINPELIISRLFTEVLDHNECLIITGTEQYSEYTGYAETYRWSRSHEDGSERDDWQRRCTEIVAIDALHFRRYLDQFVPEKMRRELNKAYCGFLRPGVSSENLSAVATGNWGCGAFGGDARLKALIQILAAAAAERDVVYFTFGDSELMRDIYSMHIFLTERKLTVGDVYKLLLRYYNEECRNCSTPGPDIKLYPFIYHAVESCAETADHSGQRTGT

| SMILES | IC50 [1] [µM] | IC50 [2] [µM] |
| --- | --- | --- |
| N#CC1(NS(=O)(=O)c2ccc3c4c(N5CC6CN(C(=O)C7COC7)CC6C5)ncnc4n(-c4nnc(C(F)F)s4)c3c2)CC1 (stereo not drawn) [Example 71, N-(1-Cyanocyclopropyl)-9-(5-(difluoromethyl)-1,3,4-thiadiazol-2-yl)-4-(5-(oxetane-3-carbonyl)hexahydropyrrolo[3,4-c]pyrrol-2(1H)-yl)-9H-pyrimido[4,5-b]indole-7-sulfonamide] | < 0.1 | 0.1 to 1 |
| CN1CCC[C@@H]1C(=O)N1CCC(c2ncnc3c2c2ccc(S(=O)(=O)NC4(C#N)CC4)cc2n3-c2nnc(C(F)F)s2)CC1 [Example 104, N-(1-Cyanocyclopropyl)-9-(5-(difluoromethyl)-1,3,4-thiadiazol-2-yl)-4-(1-(methyl-D-prolyl)piperidin-4-yl)-9H-pyrimido[4,5-b]indole-7-sulfonamide] | < 0.1 | 0.1 to 1 |
| CC(C)C(=O)N1C[C@H]2CC[C@@H]1CN2c1ncnc2c1c1ccc(S(=O)(=O)NC3(C#N)CC3)cc1n2-c1nnc(C(F)F)s1 [Example 32, N-(1-Cyanocyclopropyl)-9-(5-(difluoromethyl)-1,3,4-thiadiazol-2-yl)-4-((1R,4R)-5-isobutyryl-2,5-diazabicyclo[2.2.2]octan-2-yl)-9H-pyrimido[4,5-b]indole-7-sulfonamide] |  | 0.1 to 1 |
| N#CC1(NS(=O)(=O)c2ccc3c4c(N5CCN(C(=O)c6ccccn6)CC5)ncnc4n(-c4nnc(C(F)F)s4)c3c2)CC1 [Example 14, N-(1-Cyanocyclopropyl)-9-(5-(difluoromethyl)-1,3,4-thiadiazol-2-yl)-4-(4-picolinoylpiperazin-1-yl)-9H-pyrimido[4,5-b]indole-7-sulfonamide] |  | < 0.1 |

The next lines start with results.

| IC50 [1] [µM] | SMILES | IC50 [2] [µM] |
| --- | --- | --- |
| < 0.1 | CN(CCO)C(=O)N1CCC(c2ncnc3c2c2ccc(S(=O)(=O)NC4(C#N)CC4)cc2n3-c2nnc(C(F)F)s2)CC1 [Example 143, 4-(7-(N-(1-cyanocyclo-propyl)sulfamoyl)-9-(5-(difluoromethyl)-1,3,4-thiadiazol-2-yl)-9H-pyrimido[4,5-b]indol-4-yl)-N-(2-hydroxyethyl)-N-methylpiperidine-1-carboxamide] | 0.1 to 1 |
| < 0.1 | CN1CCC[C@H]1C(=O)N1CCC(c2ncnc3c2c2ccc(S(=O)(=O)NC4(C#N)CC4)cc2n3-c2nnc(C(F)F)s2)CC1 [Example 112, N-(1-cyanocyclopropyl)-9-(5-(difluoromethyl)-1,3,4-thiadiazol-2-yl)-4-(1-(methyl-L-prolyl)piperidin-4-yl)-9H-pyrimido[4,5-b]indole-7-sulfonamide] | 0.1 to 1 |
| < 0.1 | N#CC1(NS(=O)(=O)c2ccc3c4c(C5CCNCC5)ncnc4n(-c4nnc(C(F)F)s4)c3c2)CC1 [Example 87, N-(1-Cyanocyclopropyl)-9-(5-(difluoromethyl)-1,3,4-thiadiazol-2-yl)-4-(piperidin-4-yl)-9H-pyrimido[4,5-b]indole-7-sulfonamide] | 0.1 to 1 |
| 0.1 to 1 | N#CC1(NS(=O)(=O)c2ccc3c4c(N5CCC(O)CC5)ccnc4n(-c4nnc(C(F)F)s4)c3c2)CC1 [Example 80, N-(1-Cyanocyclopropyl)-9-(5-(difluoromethyl)-1,3,4-thiadiazol-2-yl)-4-(4-hydroxypiperidin-1-yl)-9H-pyrido[2,3-b]indole-7-sulfonamide] | 0.1 to 1 |
| < 0.1 | N#CC1(NS(=O)(=O)c2ccc3c4c(C5CCN(C(=O)C6(O)CC6)CC5)ncnc4n(-c4nnc(C(F)F)s4)c3c2)CC1 [Example 114, N-(1-cyanocyclopropyl)-9-(5-(difluoromethyl)-1,3,4-thiadiazol-2-yl)-4-(1-(1-hydroxycyclopropane-1-carbonyl)piperidin-4-yl)-9H-pyrimido[4,5-b]indole-7-sulfonamide] | 0.1 to 1 |
| < 0.1 | C[C@H](N)C(=O)N1CCC(c2ncnc3c2c2ccc(S(=O)(=O)NC4(C#N)CC4)cc2n3-c2nnc(C(F)F)s2)CC1 [Example 128, 4-(1-(L-alanyl)piperidin-4-yl)-N-(1-cyanocyclopropyl)-9-(5-(difluoromethyl)-1,3,4-thiadiazol-2-yl)-9H-pyrimido[4,5-b]indole-7-sulfonamide] | 0.1 to 1 |
